Reference: article PMC4225009, “Structure-activity-relationship study of N-acyl-N-phenylpiperazines as potential inhibitors of the Excitatory Amino Acid Transporters (EAATs): improving the potency of a micromolar screening Hit is not truism” (SpringerPlus, 2013)
Like-named read-outs stand apart in the source and are kept apart here.

Columns and labels:
Type in all cases: cell-based
[1] = target: T1, human EAAT1 (Homo sapiens, UniProt P43003); assay: [3H]-D-aspartate uptake assay at HEK293 cells stably expressing human EAAT1
T1 construct: expressed in transfected cells
T1 sequence (P43003 whole entry): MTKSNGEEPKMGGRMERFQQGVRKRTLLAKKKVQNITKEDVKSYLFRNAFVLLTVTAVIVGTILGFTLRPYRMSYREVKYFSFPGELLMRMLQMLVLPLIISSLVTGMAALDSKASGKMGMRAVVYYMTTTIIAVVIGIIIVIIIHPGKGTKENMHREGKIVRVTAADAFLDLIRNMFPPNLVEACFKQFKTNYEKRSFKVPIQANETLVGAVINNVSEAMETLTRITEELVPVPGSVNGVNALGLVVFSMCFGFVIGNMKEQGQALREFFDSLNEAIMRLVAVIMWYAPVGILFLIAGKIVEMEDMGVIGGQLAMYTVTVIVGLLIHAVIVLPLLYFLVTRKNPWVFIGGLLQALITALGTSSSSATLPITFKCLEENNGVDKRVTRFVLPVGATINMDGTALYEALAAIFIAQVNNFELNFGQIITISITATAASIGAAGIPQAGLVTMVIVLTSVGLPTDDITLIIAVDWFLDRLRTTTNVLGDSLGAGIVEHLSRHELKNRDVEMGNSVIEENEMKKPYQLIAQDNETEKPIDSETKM
From the text: (§1) In total, […] piperazine analogs 2.1-2.40 and 3.1-3.12 were characterized pharmacologically at stable HEK293 cells expressing human EAAT1-3 in a [^3H]-D-aspartate uptake assay, (Jensen & Bräuner-Osborne [2004]) and the results are summarized in Table 1 and Table 2. […] Usually, such findings would lead to the conclusion that the bicyclo-[2.2.1]-heptanyl group occupies a promiscuous hydrophobic pocket, which could be optimized for increased potency. However, upon increasing or decreasing the hydrophobic bulk and/or flexibility, a clear drop in potency was observed (analogs 2.1-2.17, Table 1). […] These findings could open up for the hypothesis that the pocket is indeed not hydrophobic but instead hydrophilic in nature. Upon binding of the hydrophobic alkane group, water molecules are forced out and ligand binding is entropically driven rather than enthalpically. Thus analogs 2.18-2.31, which comprise a hydrophobic group, could be potential inhibitors.
(§2) Analogs 2.22-2.31, 2.36-2.40, 3.3, 3.4, 3.6 and 3.12 were obtained as 5 mg portions pre-dissolved in DMSO from ChemBridge corporation and used directly in the [3H]-Asp-uptake assay.

[2] = target: T2, human EAAT2 (Homo sapiens, UniProt P43004); assay: [3H]-D-aspartate uptake assay at HEK293 cells stably expressing human EAAT2
T2 construct: expressed in transfected cells
T2 sequence (P43004 whole entry): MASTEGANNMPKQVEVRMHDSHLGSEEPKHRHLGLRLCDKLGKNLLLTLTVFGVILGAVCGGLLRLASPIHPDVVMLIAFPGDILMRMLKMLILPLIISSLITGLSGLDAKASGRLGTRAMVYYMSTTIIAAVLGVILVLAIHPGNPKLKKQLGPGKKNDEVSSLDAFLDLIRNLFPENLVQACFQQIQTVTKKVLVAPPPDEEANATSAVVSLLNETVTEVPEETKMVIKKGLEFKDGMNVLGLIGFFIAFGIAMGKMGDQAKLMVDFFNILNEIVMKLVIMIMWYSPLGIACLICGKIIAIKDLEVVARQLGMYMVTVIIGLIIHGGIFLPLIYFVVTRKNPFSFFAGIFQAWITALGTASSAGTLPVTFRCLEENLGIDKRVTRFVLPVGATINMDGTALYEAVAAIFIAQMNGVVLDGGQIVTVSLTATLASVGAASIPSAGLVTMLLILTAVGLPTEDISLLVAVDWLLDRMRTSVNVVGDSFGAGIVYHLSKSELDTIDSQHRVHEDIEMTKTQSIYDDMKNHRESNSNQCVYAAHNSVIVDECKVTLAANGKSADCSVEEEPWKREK
From the text: as §1, §2

[3] = target: T3, human EAAT3 (Homo sapiens, UniProt P43005); assay: [3H]-D-aspartate uptake assay at HEK293 cells stably expressing human EAAT3; conditions: for EAAT3 pIC50 ± S.E.M.: value in brackets, Table 1
T3 construct: expressed in transfected cells
T3 sequence (P43005 1-524): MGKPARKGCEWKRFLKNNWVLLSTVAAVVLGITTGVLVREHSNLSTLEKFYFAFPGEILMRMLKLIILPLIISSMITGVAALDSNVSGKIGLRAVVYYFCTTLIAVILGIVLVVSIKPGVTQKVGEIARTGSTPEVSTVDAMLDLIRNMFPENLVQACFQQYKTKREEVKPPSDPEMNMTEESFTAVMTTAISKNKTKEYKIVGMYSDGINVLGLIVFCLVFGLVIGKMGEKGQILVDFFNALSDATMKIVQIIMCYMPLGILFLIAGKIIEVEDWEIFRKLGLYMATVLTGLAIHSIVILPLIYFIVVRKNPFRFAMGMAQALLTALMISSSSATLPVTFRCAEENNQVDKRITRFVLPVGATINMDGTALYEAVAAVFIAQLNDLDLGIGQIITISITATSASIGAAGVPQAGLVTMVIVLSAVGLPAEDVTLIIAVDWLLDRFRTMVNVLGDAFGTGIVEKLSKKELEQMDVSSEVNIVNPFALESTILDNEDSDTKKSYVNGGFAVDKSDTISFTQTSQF
From the text: as §1, §2

[4] = test system: human EAAT1-3; assay: [3H]-D-aspartate uptake assay, statements made for EAAT1-3 together; conditions: HEK293 cells expressing human EAAT1-3, [3H]-D-aspartate uptake
From the text: as §1, §2

[5] = [3H]-D-aspartate uptake, HEK293 cells stably expressing human EAAT1, analogs 1 and 2.1-2.40 (Table 1), read-out: EAAT1 IC50
[6] = [3H]-D-aspartate uptake, HEK293 cells stably expressing human EAAT2, analogs 1 and 2.1-2.40 (Table 1), read-out: EAAT2 IC50
[7] = [3H]-D-aspartate uptake, HEK293 cells stably expressing human EAAT3, analogs 1 and 2.1-2.40 (Table 1), read-out: EAAT3 IC50
[8] = D-aspartate uptake, HEK293 cells stably expressing human EAAT1, analogs 3.1-3.12 (Table 2), read-out: EAAT1 IC50
[9] = D-aspartate uptake, HEK293 cells stably expressing human EAAT2, analogs 3.1-3.12 (Table 2), read-out: EAAT2 IC50
[10] = D-aspartate uptake, HEK293 cells stably expressing human EAAT3, analogs 3.1-3.12 (Table 2), read-out: EAAT3 IC50

SMILES	IC50 [1, 5] [µM]	IC50 [2, 6] [µM]	IC50 [3, 7] [µM]	IC50 [1] [µM]	IC50 [2] [µM]	IC50 [3] [µM]	further results
FC(F)(F)c1cccc(N2CCN(CC3CC4CCC3C4)CC2)c1 (mixture of isomers) [(±)-endo-exo-2.34, (±)-endo-exo-Bicyclo[2.2.1]heptan-2-ylmethyl)-4-(3-(trifluoromethyl)phenyl)piperazine]	> 300	> 300	> 300	–	–	–	–
O=C(C1CC2CCC1C2)N1CCN(c2cccc(C(F)(F)F)c2)CC1 (mixture of isomers) [(±)-exo-1]	10	40	–	–	–	–	IC50 ([1]; value in brackets, Table 1, read-out: EAAT1 pIC50 ± S.E.M. (converted)): 9.33 µM; IC50 ([2]; value in brackets, Table 1, read-out: EAAT2 pIC50 ± S.E.M. (converted)): 36.3 µM; inhibitory activity at EAAT1-3 (in words) [4]: IC50 values at the three transporters in the mid-micromolar range
O=C([C@@H]1C[C@@H]2CC[C@H]1C2)N1CCN(c2cccc(C(F)(F)F)c2)CC1 (racemic) [(±)-endo-1, (±)-endo-Bicyclo[2.2.1]heptan-2-yl(4-(3-(trifluoromethyl)phenyl)piperazin-1-yl)methanone]	14	32	10	–	–	–	EAAT1 pIC50 ± S.E.M. ([1]; value in brackets, Table 1): 4.88 ± 0.09; EAAT2 pIC50 ± S.E.M. ([2]; value in brackets, Table 1): 4.52 ± 0.12; EAAT3 pIC50 ± S.E.M. [3]: 5.04 ± 0.13; inhibitory activity at EAAT1-3 (in words) [4]: inhibitory potency in the mid-micromolar range
O=C(C1CC2CCC1C2)N1CCN(c2cccc(C(F)(F)F)c2)CC1 (racemic) [(±)-endo-exo-1, (±)-endo-exo-Bicyclo[2.2.1]heptan-2-yl(4-(3-(trifluoromethyl)phenyl)piperazin-1-yl)methanone]	14	42	14	–	–	–	EAAT1 pIC50 ± S.E.M. ([1]; value in brackets, Table 1): 4.87 ± 0.08; EAAT2 pIC50 ± S.E.M. ([2]; value in brackets, Table 1): 4.42 ± 0.11; EAAT3 pIC50 ± S.E.M. [3]: 4.94 ± 0.16
O=C(C1CC2CCC1C2)N1CCN(c2ccccc2)CC1 (racemic) [(±)-endo-exo-3.1, Bicyclo[2.2.1]heptan-2-yl(4-phenylpiperazin-1-yl)methanone]	–	–	–	–	–	–	IC50 [1, 8]: > 300 µM; IC50 [2, 9]: > 300 µM; IC50 [3, 10]: > 300 µM; inhibitory activity at EAAT1-3 (in words) [4]: loss of inhibitory activity
O=C(C1CC2CCC1C2)N1CCN(c2ccccc2C(F)(F)F)CC1 (racemic) [(±)-endo-exo-3.5, (±)-endo-exo-Bicyclo[2.2.1]heptan-2-yl(4-(2-(trifluoromethyl)phenyl)piperazin-1-yl)methanone]	–	–	–	–	–	–	IC50 [1, 8]: ~300 µM; IC50 [2, 9]: > 300 µM; IC50 [3, 10]: > 300 µM; inhibitory activity at EAAT1-3 (in words) [4]: loss of inhibitory activity
O=C(C1CC2CCC1C2)N1CCN(c2cccc(Cl)c2)CC1 (racemic) [(±)-endo-exo-3.7, (±)-endo-exo-Bicyclo[2.2.1]heptan-2-yl(4-(3-chlorophenyl)piperazin-1-yl)methanone]	–	–	–	–	–	–	IC50 [1, 8]: ~300 µM; IC50 [2, 9]: ~300 µM; IC50 [3, 10]: > 300 µM
N#Cc1cccc(N2CCN(C(=O)C3CC4CCC3C4)CC2)c1 (racemic) [(±)-endo-exo-3.9, 3-(4-(bicyclo[2.2.1]heptane-2-carbonyl)piperazin-1-yl)benzonitrile]	–	–	–	–	–	–	IC50 [1, 8]: > 300 µM; IC50 [2, 9]: > 300 µM; IC50 [3, 10]: > 300 µM
COc1cccc(N2CCN(C(=O)C3CC4CCC3C4)CC2)c1 (racemic) [(±)-endo-exo-3.10, (±)-endo-exo-Bicyclo[2.2.1]heptan-2-yl(4-(3-methoxyphenyl)piperazin-1-yl)methanone]	–	–	–	–	–	–	IC50 [1, 8]: > 300 µM; IC50 [2, 9]: > 300 µM; IC50 [3, 10]: > 300 µM
O=C(C1CC2CCC1C2)N1CCN(c2ccc(F)cc2F)CC1 (racemic) [(±)-endo-exo-3.11, (±)-endo-exo-Bicyclo[2.2.1]heptan-2-yl(4-(2,4-difluorophenyl)piperazin-1-yl)methanone]	–	–	–	–	–	–	IC50 [1, 8]: > 300 µM; IC50 [2, 9]: > 300 µM; IC50 [3, 10]: > 300 µM
O=C(C1CC2CCC1CC2)N1CCN(c2cccc(C(F)(F)F)c2)CC1 (centres unmarked) [2.1, Bicyclo[2.2.2]octan-2-yl(4-(3-(trifluoromethyl)phenyl)piperazin-1-yl)methanone]	> 300	> 300	> 300	–	–	–	–
O=C(N1CCN(c2cccc(C(F)(F)F)c2)CC1)C12CC3CC(CC(C3)C1)C2 [2.2, Adamantan-1-yl(4-(3-(trifluoromethyl)phenyl)piperazin-1-yl)methanone]	–	–	–	> 300	> 300	> 300	–
O=C(C1CCCC1)N1CCN(c2cccc(C(F)(F)F)c2)CC1 [2.4, Cyclopentyl(4-(3-(trifluoromethyl)phenyl)piperazin-1-yl)methanone]	–	–	–	> 300	> 300	> 300	–
O=C(C1CC1)N1CCN(c2cccc(C(F)(F)F)c2)CC1 [2.5, Cyclopropyl(4-(3-(trifluoromethyl)phenyl)piperazin-1-yl)methanone]	> 300	> 300	> 300	–	–	–	–
CC(C)(C)C(=O)N1CCN(c2cccc(C(F)(F)F)c2)CC1 [2.6, 2,2-Dimethyl-1-(4-(3-(trifluoromethyl)phenyl)piperazin-1-yl)propan-1-one]	–	–	–	> 1000	> 300	> 300	–
CC(=O)N1CCN(c2cccc(C(F)(F)F)c2)CC1 [2.7, 1-(4-(3-(Trifluoromethyl)phenyl)piperazin-1-yl)ethanone]	> 1000	> 100	> 100	–	–	–	–
CC(C)CC(=O)N1CCN(c2cccc(C(F)(F)F)c2)CC1 [2.8, 3-Methyl-1-(4-(3-(trifluoromethyl)phenyl)piperazin-1-yl)butan-1-one]	> 300	> 300	> 300	–	–	–	–
CC(C)(C)CC(=O)N1CCN(c2cccc(C(F)(F)F)c2)CC1 [2.9, 3,3-Dimethyl-1-(4-(3-(trifluoromethyl)phenyl)piperazin-1-yl)butan-1-one]	> 300	> 300	> 300	–	–	–	–
CC(C)CCC(=O)N1CCN(c2cccc(C(F)(F)F)c2)CC1 [2.10, 4-Methyl-1-(4-(3-(trifluoromethyl)phenyl)piperazin-1-yl)pentan-1-one]	> 300	> 300	> 300	–	–	–	–
O=C(c1cccc(Oc2ccccc2)c1)N1CCN(c2cccc(C(F)(F)F)c2)CC1 [2.13, (3-Phenoxyphenyl)(4-(3-(trifluoromethyl)phenyl)piperazin-1-yl)methanone]	> 300	> 300	> 300	–	–	–	–
O=C(c1cccc2ccccc12)N1CCN(c2cccc(C(F)(F)F)c2)CC1 [2.15, Naphthalen-1-yl(4-(3-(trifluoromethyl)phenyl)piperazin-1-yl)methanone]	–	–	–	> 300	> 300	> 300	–
O=C(c1cccs1)N1CCN(c2cccc(C(F)(F)F)c2)CC1 [2.16, Thiophen-2-yl(4-(3-(trifluoromethyl)phenyl)piperazin-1-yl)methanone]	–	–	–	> 100	> 100	> 100	–
O=C(Cc1ccccc1)N1CCN(c2cccc(C(F)(F)F)c2)CC1 [2.17, 1-(4-(3-(Trifluoromethyl)phenyl)piperazin-1-yl)-2-phenylethanone]	–	–	–	> 300	> 300	> 1000	–
Nc1ccc(C(=O)N2CCN(c3cccc(C(F)(F)F)c3)CC2)cc1 [2.18, 4-Aminophenyl-(4-(3-(trifluoromethyl)phenyl)piperazin-1-yl)methanone]	–	–	–	> 300	> 300	> 300	–
Nc1cccc(C(=O)N2CCN(c3cccc(C(F)(F)F)c3)CC2)c1 [2.19, 3-Aminophenyl-(4-(3-(trifluoromethyl)phenyl)piperazin-1-yl)methanone]	–	–	–	> 300	> 300	> 300	–
NCC(=O)N1CCN(c2cccc(C(F)(F)F)c2)CC1 [2.20, 2-Amino-1-(4-(3-(trifluoromethyl)phenyl)piperazin-1-yl)ethanone]	–	–	–	> 300	> 300	> 300	–
FC(F)(F)c1cccc(N2CCN(Cc3ccccc3)CC2)c1 [2.35, 1-Benzyl-4-(3-(trifluoromethyl)phenyl)piperazine]	–	–	–	> 300	> 300	> 1000	–
